# Assay results published in patent US6447997B1, “Gene coding for GADD153 as a clinical diagnostic and prognostic in cancer therapy” (Research Development Foundation, priority 1997, dated 2002).
# System: GADD153 mRNA
# Experiment: GADD153 mRNA level in 2008 ovarian carcinoma cells after paclitaxel
# Format: cell-based
# Settings: concentration 10 times the IC50, 24 hours
smiles,measurement,value
CC(=O)O[C@H]1C(=O)[C@@]2(C)[C@H]([C@H](OC(=O)c3ccccc3)[C@]3(O)C[C@H](OC(=O)[C@H](O)[C@@H](NC(=O)c4ccccc4)c4ccccc4)C(C)=C1C3(C)C)[C@]1(OC(C)=O)CO[C@@H]1C[C@@H]2O [paclitaxel],increase in GADD153 mRNA level,5.7±2.5 fold
